Measurements as given in patent US9708286B2, “Ingenol-3-acylates III and ingenol-3-carbamates” (LEO Laboratories Limited, priority 2010, dated 2017).
Like-named read-outs stand apart in the source and are kept apart here.

Key:
Format in all cases: cell-based
[1] = system: PMN's (polymorphonuclear leukocytes); assay: Neutrophil oxidative burst; conditions: Leukocyte, 40 min, normalized to 5×10^−7 M PEP0005
Summary of the method: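 Human buffy-coat neutrophils (2.5×10^5/well) in HBSS with 0.1% BSA, 5 mM glucose treated with compound premixed with 10 μM hydroethidine for 40 min at RT; fluorescence read at 485/579 nm. Normalized to 5×10^−7 M PEP0005; Rel EC50 is midway between fitted top and bottom, Abs EC50 gives 50% of PEP0005 maximum.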

[2] = system: Primary human epidermal keratinocytes, HeKa; assay: HeKa cytokine release (IL-8); conditions: Homo sapiens, read-out: HeKa cytokine release (IL-8) Rel EC50 range
Summary of the method: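 Seeded cells exposed to compound dilutions for 6 h at 37° C; IL-8 in supernatant quantified by MSD sandwich electrochemiluminescence immunoassay. Effects normalized to positive control (1.5×10^−7 M PEP0005), four-parameter sigmoidal fit; Rel EC50 is concentration midway between fitted top and bottom.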

HeLa cells = assay: Necrosis assay; conditions: Homo sapiens, 0.5 h, read-out: HeLa necrosis EC50 range
Summary of the method: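 HeLa cells treated with compound at 10 μM to 400 μM (final) for 30 min at 37° C., viability then measured by PrestoBlue fluorescence (ex 535/em 630 nm). Normalized to 1% DMSO and 400 μM ingenol mebutate controls; AbsEC50 from four-parameter sigmoidal fit.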

[3] = read-out: Neutrophil oxidative burst Rel EC50 range, PMN from buffy coats, 40 min at RT, hydroethidine fluorescence

Row | Structure (SMILES) | EC50 [1, 3] [µM] | EC50 ([2]; HEKa, 6 h) [µM] | EC50 (HeLa cells; HeLa) [µM] | EC50 ([1]; PMN from buffy coats, 40 min at RT, hydroethidine fluorescence, read-out: Neutrophil oxidative burst Rel EC50 range) [µM] | EC50 ([2]; HeKa cells, 6 h at 37° C., IL-8 by MSD assay, normalized to 1.5×10^−7 M PEP0005) [µM] | EC50 (HeLa cells; HeLa cells, 30 min at 37° C., PrestoBlue, AbsEC50, normalized to 400 μM ingenol mebutate) [µM]
1 | COc1cccc(N(C)C(=O)O[C@H]2C(C)=C[C@]34C(=O)[C@@H](C=C(CO)[C@@H](O)[C@]23O)[C@H]2[C@@H](C[C@H]4C)C2(C)C)c1 [Compound 748, Ingenol 3-(N-methyl-N-(3-methoxy-phenyl)-carbamate)] | < 0.02 | 0.02 to 0.1 | 150 to 350 |  |  | 
2 | CC1=C[C@]23C(=O)[C@@H](C=C(CO)[C@@H](O)[C@]2(O)[C@H]1OC(=O)N(C)c1nc(C)cs1)[C@H]1[C@@H](C[C@H]3C)C1(C)C [Compound 752, Ingenol 3-(N-methyl-N-(4-methylthiazol-2-yl)-carbamate)] | < 0.02 | < 0.02 | 150 to 350 |  |  | 
3 | CC1=C[C@]23C(=O)[C@@H](C=C(CO)[C@@H](O)[C@]2(O)[C@H]1OC(=O)N(C)c1ccc(C#N)cc1)[C@H]1[C@@H](C[C@H]3C)C1(C)C [Compound 753, Ingenol 3-(N-(4-cyano-phenyl)-N-methyl-carbamate)] | 0.02 to 0.1 | 0.02 to 0.1 | 150 to 350 |  |  | 
4 | C/C=C(/C)C(=O)O[C@H]1C(C)=C[C@]23C(=O)[C@@H](C=C(CO)[C@@H](O)[C@]12O)[C@H]1[C@@H](C[C@H]3C)C1(C)C [Ingenol mebutate, Ingenol-3-angelate, reference compound] |  |  |  | < 0.02 | < 0.02 | 150 to 350
